According to patent US20080234130A1, “Compositions providing tolerance to multiple herbicides and methods of use thereof” (priority 2005, published 2008):

What was measured:
[1] = system: parent elite stiff stalk inbred corn; test: Preemergence effect of ALS herbicides (fresh weight, visual injury); conditions: 200 g/ha, mean of four replications; for % Visual Injury Patent elite stiff stalk inbred: 4 weeks after treatment, 0% no injury, 100% plant death; for Fresh Weight (g) patent elite stiff stalk inbred: fresh shoots 4 weeks after treatment, untreated 36.7 g
[2] = system: heterozygous GAT-HRA corn; test: as above; conditions: 200 g/ha, mean of four replications; for % Visual Injury Heterozygous GAT-HRA: 4 weeks after treatment, 0% no injury, 100% plant death; for Fresh Weight (g) Heterozygous GAT-HRA: fresh shoots 4 weeks after treatment, untreated 47.0 g
[3] = system: heterozygous GAT-HRA corn; test: Postemergence effect of ALS herbicides, glyphosate and glufosinate (fresh weight, visual injury); conditions: 200 g/ha (glyphosate 3472 g ae/ha, glufosinate ammonium 1870 g/ha), mean of four replications; for % Visual Injury Heterozygous GAT-HRA: 2 weeks after treatment, 0% no injury, 100% plant death; for Fresh Weight (g) Heterozygous GAT-HRA: applied two weeks after planting, fresh shoots 2 weeks after treatment, untreated 98.8 g
[4] = system: parent elite stiff stalk inbred corn; test: as above; conditions: 200 g/ha (glyphosate 3472 g ae/ha, glufosinate ammonium 1870 g/ha), mean of four replications; for % Visual Injury Parent elite stiff stalk inbred: 2 weeks after treatment, 0% no injury, 100% plant death; for Fresh Weight (g) Parent elite stiff stalk inbred: applied two weeks after planting, fresh shoots 2 weeks after treatment, untreated 76.4 g

| Compound | % Visual Injury Patent elite stiff stalk inbred [1] | Fresh Weight (g) patent elite stiff stalk inbred [1] | % Visual Injury Heterozygous GAT-HRA [2] | Fresh Weight (g) Heterozygous GAT-HRA [2] | % Visual Injury Heterozygous GAT-HRA [3] | Fresh Weight (g) Heterozygous GAT-HRA [3] | % Visual Injury Parent elite stiff stalk inbred [4] | Fresh Weight (g) Parent elite stiff stalk inbred [4] |
| --- | --- | --- | --- | --- | --- | --- | --- | --- |
| CC(C)C1(C)N=C(c2nc3ccccc3cc2C(=O)O)NC1=O (stereo not shown) [Imazaquin] | 99% | 1.5 g | 28% | 45.4 g | 2% | 113.3 g | 100% | 4.4 g |
| CCc1cnc(C2=NC(C)(C(C)C)C(=O)N2)c(C(=O)O)c1 (stereo not shown) [Imazethapyr] | 69% | – | 20% | – | 9% | – | 97% | – |
| COc1cc(OC)nc(NC(=O)NS(=O)(=O)c2ncccc2C(=O)N(C)C)n1 [Nicosulfuron, 2-[[[[(4,6-dimethoxy-2-pyrimidinyl)amino]carbonyl]amino]sulfonyl]-N,N-dimethyl-3-pyridinecarboxamide] | 43% | 33.6 g | 0% | 50.3 g | 0% | 94.7 g | 24% | 62.7 g |
| CCCOc1nn(C(=O)NS(=O)(=O)c2ccccc2C(=O)OC)c(=O)n1C [Propoxycarbazone Na^+, methyl 2-[[[(4,5-dihydro-4-methyl-5-oxo-3-propoxy-1H-1,2,4-triazol-1-yl)carbonyl]amino]sulfonyl]benzoate] | 100% | 0.6 g | 100% | 46.7 g | 9% | 101.2 g | 100% | 1.9 g |
| COc1nc(C)nc(NC(=O)NS(=O)(=O)c2ccccc2CCC(F)(F)F)n1 [Prosulfuron, N-[[(4-methoxy-6-methyl-1,3,5-triazin-2-yl)amino]carbonyl]-2-(3,3,3-trifluoropropyl)benzenesulfonamide] | 68% | – | 9% | – | 29% | – | 25% | – |
| CO/N=C(/C)c1cccc(Oc2nc(OC)cc(OC)n2)c1C(=O)OC [Pyriminobac-methyl] | 83% | 30.4 g | 20% | 39.9 g | 4% | 95.2 g | 93% | 7.6 g |
| COc1cc(OC)nc(Sc2cccc(Cl)c2C(=O)[O-])n1.[Na+] [Pyrithiobac Na^+, pyrithiobac-sodium] | 100% | 0.0 g | 0% | 48.6 g | 9% | 87.9 g | 100% | 2.8 g |
| COC(=O)c1ccccc1S(=O)(=O)NC(=O)Nc1nc(C)cc(C)n1 [Sulfometuron-methyl, methyl 2-[[[[(4,6-dimethyl-2-pyrimidinyl)amino]carbonyl]amino]sulfonyl]-benzoate] | 100% | 0.0 g | 6% | 47.3 g | 2% | 104.5 g | 100% | 2.0 g |
| CCS(=O)(=O)c1nc2ccccn2c1S(=O)(=O)NC(=O)Nc1nc(OC)cc(OC)n1 [Sulfosulfuron, N-[[(4,6-dimethoxy-2-pyrimidinyl)amino]carbonyl]-2-(ethylsulfonyl)imidazo[1,2-a]pyridine-3-sulfonamide] | 100% | – | 18% | – | 3% | – | 97% | – |
| COC(=O)c1sccc1S(=O)(=O)NC(=O)Nc1nc(C)nc(OC)n1 [Thifensulfuron-methyl, methyl 3-[[[[(4-methoxy-6-methyl-1,3,5-triazin-2-yl)amino]carbonyl]amino]sulfonyl]-2-thiophenecarboxylate] | 88% | – | 3% | – | 10% | – | 98% | – |
